{
  "source": "paper PMC13088180",
  "about": "“Chemical Proteomics Reveal the Inventory of Pyrroloquinoline Quinone Binding Proteins in Bacteria” (Journal of the American Chemical Society, 2026)",
  "key": {"FklB": {"molecular_target": "T1, FklB (Escherichia coli, UniProt P0A9L3)", "T1 construct": "recombinant from E. coli BL21, purified without PQQ", "T1 sequence (P0A9L3 2-206)": "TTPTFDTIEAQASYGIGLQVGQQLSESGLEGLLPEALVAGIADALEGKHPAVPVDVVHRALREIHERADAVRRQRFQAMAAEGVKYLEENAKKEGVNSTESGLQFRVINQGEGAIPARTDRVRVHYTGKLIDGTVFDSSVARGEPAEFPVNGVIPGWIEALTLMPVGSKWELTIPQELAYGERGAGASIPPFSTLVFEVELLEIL", "experiment": "UV/vis spectral shift; competition of PQQ4 labelling", "assay_type": "binding", "conditions": "no covalent adduct by intact protein MS"}, "HtpG": {"molecular_target": "T2, HtpG (Escherichia coli, UniProt P0A6Z3)", "T2 construct": "recombinant from E. coli BL21, purified without PQQ; 73529 Da peak is a +135 Da adduct", "T2 sequence (P0A6Z3 whole entry)": "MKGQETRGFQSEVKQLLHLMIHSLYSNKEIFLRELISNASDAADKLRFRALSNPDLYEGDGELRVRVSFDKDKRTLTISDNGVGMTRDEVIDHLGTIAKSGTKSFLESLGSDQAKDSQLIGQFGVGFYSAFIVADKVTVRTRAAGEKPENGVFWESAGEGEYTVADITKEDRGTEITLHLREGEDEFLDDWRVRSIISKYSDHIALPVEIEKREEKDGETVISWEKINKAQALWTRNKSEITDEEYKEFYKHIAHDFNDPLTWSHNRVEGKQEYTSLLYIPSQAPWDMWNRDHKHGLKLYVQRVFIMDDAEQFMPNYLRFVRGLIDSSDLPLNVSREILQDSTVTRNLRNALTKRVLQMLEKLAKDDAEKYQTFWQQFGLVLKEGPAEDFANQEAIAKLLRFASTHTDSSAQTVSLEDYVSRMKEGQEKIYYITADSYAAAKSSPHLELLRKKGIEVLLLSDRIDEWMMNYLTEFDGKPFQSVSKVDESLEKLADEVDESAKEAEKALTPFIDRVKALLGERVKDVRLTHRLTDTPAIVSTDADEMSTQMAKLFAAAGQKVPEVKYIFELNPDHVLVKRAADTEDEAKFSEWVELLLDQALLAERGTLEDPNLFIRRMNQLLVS", "experiment": "UV/vis spectral shift; intact protein LC-MS", "assay_type": "binding", "conditions": "covalent; 100 uM protein, 300 uM PQQ, 4 °C overnight"}, "SurA": {"molecular_target": "T3, SurA (Escherichia coli, UniProt P0ABZ6)", "T3 construct": "recombinant from E. coli BL21, purified without PQQ", "T3 sequence (P0ABZ6 21-428)": "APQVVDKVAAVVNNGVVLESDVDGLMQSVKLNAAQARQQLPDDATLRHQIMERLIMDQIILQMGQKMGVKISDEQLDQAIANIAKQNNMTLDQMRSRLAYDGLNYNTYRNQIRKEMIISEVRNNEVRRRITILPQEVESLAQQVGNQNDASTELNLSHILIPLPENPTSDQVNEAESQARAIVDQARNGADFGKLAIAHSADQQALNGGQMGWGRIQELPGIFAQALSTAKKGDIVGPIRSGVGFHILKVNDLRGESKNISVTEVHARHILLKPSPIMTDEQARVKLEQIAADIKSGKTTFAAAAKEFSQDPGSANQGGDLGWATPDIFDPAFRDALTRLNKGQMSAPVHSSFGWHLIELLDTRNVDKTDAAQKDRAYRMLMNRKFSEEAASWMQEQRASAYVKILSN", "experiment": "UV/vis spectral shift; intact protein LC-MS", "assay_type": "binding", "conditions": "covalent; 100 uM protein, 300 uM PQQ, 4 °C overnight"}, "RuvB": {"molecular_target": "T4, RuvB (Escherichia coli, UniProt P0A812)", "T4 construct": "recombinant from E. coli BL21, purified without PQQ", "T4 sequence (P0A812 1-336)": "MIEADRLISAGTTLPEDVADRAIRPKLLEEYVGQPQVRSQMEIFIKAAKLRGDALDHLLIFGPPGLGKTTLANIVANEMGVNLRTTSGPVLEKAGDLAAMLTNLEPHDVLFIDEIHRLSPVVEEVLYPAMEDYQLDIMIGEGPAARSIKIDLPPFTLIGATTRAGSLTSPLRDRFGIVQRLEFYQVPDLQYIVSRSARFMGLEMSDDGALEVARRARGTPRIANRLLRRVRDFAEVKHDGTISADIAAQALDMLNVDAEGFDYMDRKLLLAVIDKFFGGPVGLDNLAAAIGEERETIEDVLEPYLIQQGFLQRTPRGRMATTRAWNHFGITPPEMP", "experiment": "UV/vis spectral shift; intact protein MS; MS/MS site mapping", "assay_type": "binding", "conditions": "covalent; lysine K26 (main) and K46; 100 uM protein, 300 uM PQQ, 4 °C overnight"}, "PpiD": {"molecular_target": "T5, PpiD (Pseudomonas putida, UniProt Q88KI6)", "T5 construct": "gene PP_2304; recombinant from E. coli BL21, purified without PQQ", "T5 sequence (Q88KI6 36-623)": "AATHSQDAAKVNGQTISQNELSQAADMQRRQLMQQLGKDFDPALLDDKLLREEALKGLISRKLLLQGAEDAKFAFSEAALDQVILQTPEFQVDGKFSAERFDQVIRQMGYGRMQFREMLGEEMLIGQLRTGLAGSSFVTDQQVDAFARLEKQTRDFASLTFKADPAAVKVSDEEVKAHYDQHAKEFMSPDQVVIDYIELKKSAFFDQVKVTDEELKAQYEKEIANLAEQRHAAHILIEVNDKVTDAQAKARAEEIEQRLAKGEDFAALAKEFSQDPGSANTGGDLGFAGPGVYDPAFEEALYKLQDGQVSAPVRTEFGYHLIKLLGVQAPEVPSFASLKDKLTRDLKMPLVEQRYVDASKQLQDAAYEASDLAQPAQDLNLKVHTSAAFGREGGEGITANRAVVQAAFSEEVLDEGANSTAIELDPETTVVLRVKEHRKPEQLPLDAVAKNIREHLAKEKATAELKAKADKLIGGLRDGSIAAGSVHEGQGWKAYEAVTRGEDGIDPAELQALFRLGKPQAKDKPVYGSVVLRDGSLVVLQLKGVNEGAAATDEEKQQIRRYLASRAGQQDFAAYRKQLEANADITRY", "experiment": "UV/vis spectral shift; intact protein LC-MS", "assay_type": "binding", "conditions": "covalent; 100 uM protein, 300 uM PQQ, 4 °C overnight"}, "Tig (trigger factor)": {"molecular_target": "T6, Tig (trigger factor) (Escherichia coli, UniProt P0A850)", "T6 construct": "recombinant from E. coli BL21, purified without PQQ", "T6 sequence (P0A850 1-432)": "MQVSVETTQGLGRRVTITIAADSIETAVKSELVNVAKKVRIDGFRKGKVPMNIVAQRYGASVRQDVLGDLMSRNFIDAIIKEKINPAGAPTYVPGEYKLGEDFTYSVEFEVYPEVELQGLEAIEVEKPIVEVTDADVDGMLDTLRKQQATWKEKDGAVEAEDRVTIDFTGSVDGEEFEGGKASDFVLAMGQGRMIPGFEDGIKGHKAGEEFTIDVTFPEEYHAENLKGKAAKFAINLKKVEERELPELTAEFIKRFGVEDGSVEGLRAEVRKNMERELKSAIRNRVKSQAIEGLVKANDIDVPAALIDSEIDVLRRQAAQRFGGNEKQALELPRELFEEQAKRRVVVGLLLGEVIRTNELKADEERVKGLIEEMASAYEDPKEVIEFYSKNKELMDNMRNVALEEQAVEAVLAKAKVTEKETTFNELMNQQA", "experiment": "UV/vis spectral shift; intact protein LC-MS", "assay_type": "binding", "conditions": "covalent; 100 uM protein, 300 uM PQQ, 4 °C overnight"}, "[1]": {"molecular_target": "T7, MBP (maltose-binding protein) (Escherichia coli, UniProt P0AEX9)", "T7 construct": "gene malE; recombinant from E. coli BL21, purified without PQQ", "experiment": "UV/vis spectral shift; intact protein LC-MS", "conditions": "covalent; 100 uM protein, 300 uM PQQ, 4 °C overnight"}, "[2]": {"molecular_target": "T8, 6PGD / 6GPD (6-phosphogluconate dehydrogenase, decarboxylating) (Escherichia coli, UniProt P00350)", "T8 construct": "gene gnd; endogenous protein in E. coli K-12 lysate", "T8 sequence (P00350 1-468)": "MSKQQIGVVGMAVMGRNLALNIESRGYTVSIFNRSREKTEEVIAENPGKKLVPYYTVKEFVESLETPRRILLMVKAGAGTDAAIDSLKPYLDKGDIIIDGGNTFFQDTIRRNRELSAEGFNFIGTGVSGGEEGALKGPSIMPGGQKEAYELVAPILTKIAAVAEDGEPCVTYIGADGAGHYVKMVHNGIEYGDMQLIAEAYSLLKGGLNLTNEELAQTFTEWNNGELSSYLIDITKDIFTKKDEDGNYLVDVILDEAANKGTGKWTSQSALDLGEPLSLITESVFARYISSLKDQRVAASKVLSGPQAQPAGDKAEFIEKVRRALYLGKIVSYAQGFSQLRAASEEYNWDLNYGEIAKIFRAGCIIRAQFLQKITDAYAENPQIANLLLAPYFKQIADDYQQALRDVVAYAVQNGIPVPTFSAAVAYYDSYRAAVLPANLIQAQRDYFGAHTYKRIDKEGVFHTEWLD", "experiment": "MS/MS closed search of +310 Da on lysine", "assay_type": "biochemical", "conditions": "covalent; E. coli K-12 lysate 3.5 mg/mL, 2000 uM PQQ, 2000 uM CaCl2, 37 °C, 4 h"}, "PedH": {"molecular_target": "T9, PedH (Pseudomonas putida, UniProt Q88JH0)", "T9 sequence (Q88JH0 28-595)": "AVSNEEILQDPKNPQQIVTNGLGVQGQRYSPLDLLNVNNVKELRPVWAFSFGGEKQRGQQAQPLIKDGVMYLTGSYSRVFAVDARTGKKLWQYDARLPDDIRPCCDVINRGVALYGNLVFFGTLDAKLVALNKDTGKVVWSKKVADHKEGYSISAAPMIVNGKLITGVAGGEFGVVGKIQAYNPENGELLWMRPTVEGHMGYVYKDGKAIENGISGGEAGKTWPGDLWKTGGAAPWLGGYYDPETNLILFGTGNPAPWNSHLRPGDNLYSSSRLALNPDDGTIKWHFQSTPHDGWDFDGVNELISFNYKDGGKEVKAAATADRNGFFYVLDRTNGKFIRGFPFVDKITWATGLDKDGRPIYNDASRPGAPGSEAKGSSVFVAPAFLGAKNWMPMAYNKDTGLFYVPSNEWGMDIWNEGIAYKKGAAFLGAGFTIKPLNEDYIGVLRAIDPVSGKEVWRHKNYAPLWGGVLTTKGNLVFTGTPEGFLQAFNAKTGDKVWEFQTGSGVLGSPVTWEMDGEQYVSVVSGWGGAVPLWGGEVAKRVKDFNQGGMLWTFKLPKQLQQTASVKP", "conditions": "100 nM enzyme reconstituted with PQQ, 50 mM ethanol"}, "YliI": {"molecular_target": "T10, YliI (Escherichia coli, UniProt P75804)", "T10 construct": "recombinant, purified cofactor-free; details only in supplement", "T10 sequence (P75804 21-371)": "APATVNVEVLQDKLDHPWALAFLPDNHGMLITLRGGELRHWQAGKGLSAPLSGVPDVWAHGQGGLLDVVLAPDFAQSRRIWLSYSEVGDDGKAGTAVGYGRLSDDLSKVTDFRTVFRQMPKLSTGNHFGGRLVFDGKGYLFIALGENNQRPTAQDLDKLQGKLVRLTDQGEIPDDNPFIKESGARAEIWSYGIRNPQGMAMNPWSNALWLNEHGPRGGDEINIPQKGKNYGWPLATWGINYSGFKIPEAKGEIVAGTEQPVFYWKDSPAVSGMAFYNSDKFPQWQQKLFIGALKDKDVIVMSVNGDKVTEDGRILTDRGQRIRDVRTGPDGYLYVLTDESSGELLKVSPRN", "experiment": "coupled colorimetric assay", "assay_type": "biochemical", "conditions": "100 nM enzyme reconstituted with PQQ, 1.25 M glucose"}},
  "data": [
    {"smiles": "O=C(O)c1cc(C(=O)O)c2c(n1)C(=O)C(=O)c1cc(C(=O)O)[nH]c1-2", "note": "[PQQ, Pyrroloquinoline quinone]", "values": [
      {"measurement": "UV/vis spectral shift; competition of PQQ4 labelling", "setting": "FklB", "result": "addition of the cofactor revealed characteristic spectroscopic shifts comparable to those of YliI and PedH"},
      {"measurement": "+310 Da mass shift", "setting": "HtpG", "result": "covalent PQQ binding in the case of Tig, HtpG, MBP, RuvB, SurA, and PpiD"},
      {"measurement": "+310 Da mass shift", "setting": "SurA", "result": "covalent PQQ binding in the case of Tig, HtpG, MBP, RuvB, SurA, and PpiD"},
      {"measurement": "+310 Da mass shift", "setting": "RuvB", "result": "confirming K26 as the predominant covalent binding site"},
      {"measurement": "+310 Da mass shift", "setting": "PpiD", "result": "covalent PQQ binding in the case of Tig, HtpG, MBP, RuvB, SurA, and PpiD"},
      {"measurement": "+310 Da mass shift", "setting": "Tig (trigger factor)", "result": "covalent PQQ binding in the case of Tig, HtpG, MBP, RuvB, SurA, and PpiD"},
      {"measurement": "+310 Da mass shift", "setting": "[1]", "result": "covalent PQQ binding in the case of Tig, HtpG, MBP, RuvB, SurA, and PpiD"},
      {"measurement": "mass shift", "setting": "[2]", "result": "confirmed Tig and 6GPD as covalent binding protein hits"}
    ]},
    {"smiles": "CCO", "note": "[ethanol]", "values": [
      {"measurement": "coupled colorimetric assay", "setting": "PedH", "result": "Ethanol dehydrogenase activity of PedH reconstituted with PQQ or PQQ probes was measured"}
    ]},
    {"smiles": "OC[C@H]1OC(O)[C@H](O)[C@@H](O)[C@@H]1O", "note": "(stereo partly shown) [glucose]", "values": [
      {"measurement": "coupled colorimetric assay", "setting": "YliI", "result": "Glucose dehydrogenase activity of YliI reconstituted with PQQ or PQQ probes was measured"}
    ]}
  ]
}
